Legend:
[1] = Clinical study of immediate-release tozadenant: treatment-emergent adverse events, Cmax and Css (Table 18); format: in vivo, human; details: for Total AEs/subject / concentration at 14 day / Cmax: immediate-release formulation; for Total Number of AEs: immediate-release formulation (N = 6); for concentration at 14 day / Cmax: human, plasma; for Cmax: read-out: Cmax (ng/mL) at Day 14
Experimental: Advantages of controlled-release formulations compared to immediate-release formulations include: lower incidence of adverse events; improved tolerability; reduced frequency of dosing; and improved compliance due to reduced frequency of dosing.
An example of an efficacious dose of tozadenant is 120 mg of an immediate-release formulation administered twice a day (BID). […] Thus, a CR formulation could be designed to achieve an efficacious Css lower than the plasma levels (Cmax) that result in AEs. An efficacious CR formulation would preferably result in a Css in the range of 0.5-3.0 μg/mL.

[2] = Treatment-emergent adverse events and tozadenant plasma Cmax by dose in patients (Table 19); format: in vivo, human; details: for Cmax at 6 week / Cmax: human, oral; for Cmax at 6 week: maximum plasma concentration in group of 63-75 patients, time since last dose unknown; for Cmax: plasma, read-out: Cmax (ng/mL) at ~5 hr postdose at Day 1
From the text: Table 19 summarizes the dose response of AEs observed in patients taking tozadenant alongside the plasma Cmax. A clear trend of increasing AEs and discontinuation of therapy is seen with doses that result in higher tozadenant Cmax. A controlled-release formulation can be used to achieve the drug levels (Css) that are therapeutically effective while avoiding the high plasma Cmax and AEs associated with high doses of an IR formulation.

[3] = Physical characterization of tozadenant API; format: physicochemical
From the text: The active pharmaceutical ingredient (API) was very fine, with ˜60% fines. […] The observed loss upon drying indicated a low amount of water and volatile matter in API.

- Bulk density [3]: 0.1948 g/mL
- Compressibility index [3]: 35.065
- Fines Portion (# 60 pass portion) [3]: 60.00%
- Granular Portion (# 60 Retain portion) [3]: 40.00%
- Hausner ratio [3]: 1.5406
- Tapped density [3]: 0.3000 g/mL
- Particle size distribution (% Retention) ([3]; ASTM # 20 mesh (841μ)): 0.00%
- Particle size distribution (% Retention) ([3]; ASTM # 40 mesh (420μ)): 7.00%
- Particle size distribution (% Retention) ([3]; ASTM # 60 mesh (250μ)): 33.00%
- Particle size distribution (% Retention) ([3]; ASTM # 80 mesh (177μ)): 18.00%
- Particle size distribution (% Retention) ([3]; ASTM # 100 mesh (149μ)): 16.00%
- Particle size distribution (% Retention) ([3]; ASTM # 200 mesh (75μ)): 21.00%
- Particle size distribution (% Retention) ([3]; Pan): 5.00%
- Loss on drying ([3]; at 105° C. for 5 minutes): 0.400 % w/w
Structure (SMILES): COc1ccc(N2CCOCC2)c2sc(NC(=O)N3CCC(C)(O)CC3)nc12 [tozadenant, 4-hydroxy-4-methyl-piperidine-1-carboxylic acid (4-methoxy-7-morpholin-4-yl-benzothiazol-2-yl)-amide]
- Css ([1]; 120 mg of an immediate-release formulation administered twice a day (BID)): about 2.4 μg/mL
- Total AEs/subject ([1]; 120 BID): 0.7
- Total Number of AEs ([1]; 120 BID): 4
- Total AEs/subject ([1]; 240 BID): 4.0
- Total Number of AEs ([1]; 240 BID): 24
- Total AEs/subject ([1]; 240 QD): 2.7
- Total Number of AEs ([1]; 240 QD): 16
- Total AEs/subject ([1]; 480 QD): 5.0
- Total Number of AEs ([1]; 480 QD): 30
- concentration at 14 day ([1]; 120 mg, 120 BID): 2360 ng/mL
- Cmax ([1]; 120 mg, 120 BID): 2970 ng/mL
- concentration at 14 day ([1]; 240 mg, 240 BID): 4810 ng/mL
- Cmax ([1]; 240 mg, 240 BID): 6160 ng/mL
- concentration at 14 day ([1]; 240 mg, 240 QD): 2080 ng/mL
- Cmax ([1]; 240 mg, 240 QD): 3440 ng/mL
- concentration at 14 day ([1]; 480 mg, 480 QD): 3500 ng/mL
- Cmax ([1]; 480 mg, 480 QD): 5120 ng/mL
- Patients discontinuing due to AEs, % ([2]; 60 mg BID): 8%
- Patients with no AE, % ([2]; 60 mg BID): 28%
- Patients with ≥ 1 AE related to study drug, % ([2]; 60 mg BID (N = 85)): 44%
- Patients discontinuing due to AEs, % ([2]; 120 mg BID): 12%
- Patients with no AE, % ([2]; 120 mg BID): 26%
- Patients with ≥ 1 AE related to study drug, % ([2]; 120 mg BID (N = 82)): 55%
- Patients discontinuing due to AEs, % ([2]; 180 mg BID): 12%
- Patients with no AE, % ([2]; 180 mg BID): 21%
- Patients with ≥ 1 AE related to study drug, % ([2]; 180 mg BID (N = 85)): 55%
- Patients discontinuing due to AEs, % ([2]; 240 mg BID): 20%
- Patients with no AE, % ([2]; 240 mg BID): 18%
- Patients with ≥ 1 AE related to study drug, % ([2]; 240 mg BID (N = 84)): 63%
- Cmax at 6 week ([2]; 60 mg BID): 2570 ng/mL
- Cmax ([2]; 60 mg BID): 424 ng/mL
- Cmax at 6 week ([2]; 120 mg BID): 3910 ng/mL
- Cmax ([2]; 120 mg BID): 680 ng/mL
- Cmax at 6 week ([2]; 180 mg BID): 5460 ng/mL
- Cmax ([2]; 180 mg BID): 999 ng/mL
- Cmax at 6 week ([2]; 240 mg BID): 6630 ng/mL
- Cmax ([2]; 240 mg BID): 1150 ng/mL
